We go through two compounds from patent publication US12636284B2, “Compositions for use in the prevention and/or treatment of intellectual disability and neurodegenerative diseases in a subject with down syndrome” (UNIVERSITA' DEGLI STUDI DI ROMA “LA SAPIENZA”, priority 2021, dated 2026).

The subject of one test is DYRK1A protein. Description: DYRK1A protein levels in primary hippocampal neurons isolated from Ts2Cje mice. Format: cell-based, mouse. As to conditions: 1, 5, 10 μM for 24 hours, vs untreated Ts2Cje. As to the method: For Western blots, 20 μg of proteins from the hippocampus of mice belonging to the four experimental groups were separated by 4-15% SDS-PAGE Criterion™ TGX (Tris-Glyicine eXtended) Stain-Free™ (Bio-rad, Hercules, CAUSE). This type of gel allows a rapid acquisition of the protein run in the ultraviolet (UV) by Chemidoc™ MP imaging systems (Bio-rad, Hercules, CA, USA). Therefore, the gel, once the image has been acquired, represents the total of the loaded proteins (Total Load), which will then be used to normalize the specific proteins to be examined. After electrophoresis and gel imaging, proteins are transferred via the semi-dry TransBlot Turbo apparatus (Bio-Rad Laboratories) onto nitrocellulose membranes (Bio-Rad, Hercules, CA, USA). Nitrocellulose membranes are blocked with 3% bovine serum albumin (BSA) in a solution of Tween 20-TBS and incubated overnight at 4° C. using specific primary antibodies: p(T216)-GSK3B (1:1000, Santa Cruz, #sc-135653), p(S9)-GSK3β (1:1000, Cell Signaling, #5558S), GSK3β (1:1000 Abcam, #93926) and DYRK1A (1:1000, Cell Signaling, #8765S), MAPK44/42 (1:1000, Cell Signaling, #9102), p(Thr202/Tyr204)-MAPK44/42 (1 1000, Cell Signaling, #9101), Akt (1:2000, Bio-Rad, # vma00253K), p(S473) Akt (1:1000, Cell Signaling, #4060S). After three washes with a T-TBS buffer solution, membranes were incubated for 1 hour at room temperature with the secondary antibodies. Secondary antibodies with peroxidase activity are anti-mouse or anti-rabbit (1:5000, Bio-rad, Hercules, CA, USA). Membranes were developed using Clarity Enhanced Chemiluminescence (ECL), a chemiluminescent substrate (Bio-rad, Hercules, CA, USA) and acquired with Chemidoc Mp (Bio-rad, Hercules, CA, USA). Finally, the results obtained were analyzed using the ImageLab program (Bio-rad, Hercules, CA, USA).
In order to isolate primary hippocampal neurons, hippocampi from Ts and euploid mice were mechanically dissociated in PBS (with Ca^2+ and Mg^2−) and centrifuged (3 minutes, 1100 rpm, 25° C.). […]

For a further test, the system named is GSK3b protein. Nature of the test: GSK3b activation (pSer9/pTyr216 ratio) in primary hippocampal neurons isolated from Ts2Cje mice. Format: cell-based, mouse. The settings on record: 1, 5, 10 μM for 24 hours. The method, then:
For Western blots, 20 μg of proteins from the hippocampus of mice belonging to the four experimental groups were separated by 4-15% SDS-PAGE CriterionTM […] (Bio-rad, Hercules, CAUSE). […] Therefore, the gel, once the image has been acquired, represents the total of the loaded proteins (Total Load), which will then be used to normalize the specific proteins to be examined. After electrophoresis and gel imaging, proteins are transferred via the semi-dry TransBlot Turbo apparatus (Bio-Rad Laboratories) onto nitrocellulose membranes (Bio-Rad, Hercules, CA, USA). Nitrocellulose membranes are blocked with 3% bovine serum albumin (BSA) in a solution of Tween 20-TBS and incubated overnight at 4° C. using specific primary antibodies: p([…])-GSK3B (1:1000, Santa Cruz, #sc-135653), p(S9)-GSK3β (1:1000, Cell Signaling, #5558S), GSK3β (1:1000 Abcam, #93926) and DYRK1A (1:1000, Cell Signaling, #8765S), MAPK44/42 (1:1000, Cell Signaling, #9102), p[…])-MAPK44/42 (1 1000, Cell Signaling, #9101), Akt (1:2000, Bio-Rad, # vma00253K), p(S473) Akt (1:1000, Cell Signaling, #4060S). After three washes with a T-TBS buffer solution, membranes were incubated for 1 hour at room temperature with the secondary antibodies. Secondary antibodies with peroxidase activity are anti-mouse or anti-rabbit (1:5000, Bio-rad, Hercules, CA, USA). […] Finally, the results obtained were analyzed using the ImageLab program (Bio-rad, Hercules, CA, USA). […] In order to isolate primary hippocampal neurons, hippocampi from Ts and euploid mice were mechanically dissociated in PBS (with Ca^2+ and […]) and centrifuged (3 minutes, 1100 rpm, 25° C.). Subsequently, the pellet was resuspended in 0.25% trypsin solution and centrifuged further for 3 minutes at 1100 rpm at Tamb. At this point, the cell extract was resuspended in MEM 1 culture medium (Minimum Essential Medium complemented with fetal bovine serum (FBS-1%), L-glutamine 200 mM (1%), glucose 25 mM (1%), gentamicin 0.1 mg/ml) and centrifuged for 10 minutes, 1100 rpm at 25° C. […]

Regarding `Cn1c(=O)cc(N2CCC[C@@H](N)C2)n(Cc2ccccc2C#N)c1=O` [alogliptin], the “levels of the DYRK1A protein in Ts2Cje neurons” value with DYRK1A protein is listed as “significant reduction”. Moreover, in the test with GSK3b protein, the “activity of the GSK3B protein in Ts2Cje neurons” value is reported as “significant increase”.

Take `N#C[C@@H]1CCCN1C(=O)CNC12CC3CC(CC(O)(C3)C1)C2` [vildagliptin]: the “levels of the DYRK1A protein in Ts2Cje neurons” value with DYRK1A protein is reported as “significant reduction”. Also, the “activity of the GSK3B protein in Ts2Cje neurons” value in the test on GSK3b protein was “significant increase”.
